Laboratory results reported in ChEMBL document CHEMBL4507290 (2021).

What was measured:
[1] = target: Activin receptor type-1B (Homo sapiens) (UniProt P36896); settings: Compound concentration 1000.0 nM
[2] = target: Atypical kinase COQ8B, mitochondrial (Homo sapiens) (UniProt Q96D53); settings: Compound concentration 1000.0 nM
[3] = target: 5'-AMP-activated protein kinase catalytic subunit alpha-2 (Homo sapiens) (UniProt P54646); settings: Compound concentration 1000.0 nM
[4] = target: Ankyrin repeat and protein kinase domain-containing protein 1 (Homo sapiens) (UniProt Q8NFD2); settings: Compound concentration 1000.0 nM
[5] = target: Cyclin-dependent kinase 8 (Homo sapiens) (UniProt P49336); settings: Compound concentration 1000.0 nM
[6] = target: Dual specificity protein kinase CLK1 (Homo sapiens) (UniProt P49759); settings: Compound concentration 1000.0 nM
[7] = target: Death-associated protein kinase 2 (Homo sapiens) (UniProt Q9UIK4); settings: Compound concentration 1000.0 nM
[8] = target: Mitogen-activated protein kinase kinase kinase 12 (Homo sapiens) (UniProt Q12852); settings: Compound concentration 1000.0 nM
[9] = target: Dual specificity tyrosine-phosphorylation-regulated kinase 2 (Homo sapiens) (UniProt Q92630); settings: Compound concentration 1000.0 nM
[10] = test system: Epidermal growth factor receptor (Homo sapiens), P00533 [UNDEFINED MUTATION]; settings: Compound concentration 1000.0 nM
[11] = test system: Epidermal growth factor receptor (Homo sapiens), P00533 [L861Q]; settings: Compound concentration 1000.0 nM
[12] = test system: Epidermal growth factor receptor (Homo sapiens), P00533 [T790M]; settings: Compound concentration 1000.0 nM
[13] = target: Ephrin type-B receptor 2 (Homo sapiens) (UniProt P29323); settings: Compound concentration 1000.0 nM
[14] = target: Serine/threonine-protein kinase/endoribonuclease IRE1 (Homo sapiens) (UniProt O75460); settings: Compound concentration 1000.0 nM
[15] = target: Receptor-type tyrosine-protein kinase FLT3 (Homo sapiens) (UniProt P36888); settings: Compound concentration 1000.0 nM
[16] = target: Vascular endothelial growth factor receptor 3 (Homo sapiens) (UniProt P35916); settings: Compound concentration 1000.0 nM
[17] = target: Beta-adrenergic receptor kinase 1 (Homo sapiens) (UniProt P25098); settings: Compound concentration 1000.0 nM
[18] = test system: Mast/stem cell growth factor receptor Kit (Homo sapiens), P10721 [L576P]; settings: Compound concentration 1000.0 nM
[19] = target: Mast/stem cell growth factor receptor Kit (Homo sapiens) (UniProt P10721); settings: Compound concentration 1000.0 nM
[20] = target: LIM domain kinase 1 (Homo sapiens) (UniProt P53667); settings: Compound concentration 1000.0 nM
[21] = target: Mitogen-activated protein kinase kinase kinase 2 (Homo sapiens) (UniProt Q9Y2U5); settings: Compound concentration 1000.0 nM
[22] = target: MAP/microtubule affinity-regulating kinase 4 (Homo sapiens) (UniProt Q96L34); settings: Compound concentration 1000.0 nM
[23] = target: Dual specificity mitogen-activated protein kinase kinase 1 (Homo sapiens) (UniProt Q02750); settings: Compound concentration 1000.0 nM
[24] = target: Serine/threonine-protein kinase MRCK alpha (Homo sapiens) (UniProt Q5VT25); settings: Compound concentration 1000.0 nM
[25] = target: Macrophage-stimulating protein receptor (Homo sapiens) (UniProt Q04912); settings: Compound concentration 1000.0 nM
[26] = target: Muscle, skeletal receptor tyrosine-protein kinase (Homo sapiens) (UniProt O15146); settings: Compound concentration 1000.0 nM
[27] = target: Serine/threonine-protein kinase PAK 6 (Homo sapiens) (UniProt Q9NQU5); settings: Compound concentration 1000.0 nM
[28] = target: Cyclin-dependent kinase 17 (Homo sapiens) (UniProt Q00537); settings: Compound concentration 1000.0 nM
[29] = target: Cyclin-dependent kinase 18 (Homo sapiens) (UniProt Q07002); settings: Compound concentration 1000.0 nM
[30] = target: Platelet-derived growth factor receptor alpha (Homo sapiens) (UniProt P16234); settings: Compound concentration 1000.0 nM
[31] = test system: Phosphatidylinositol 4,5-bisphosphate 3-kinase catalytic subunit alpha isoform (Homo sapiens), P42336 [M1043I]; settings: Compound concentration 1000.0 nM
[32] = target: Serine/threonine-protein kinase N1 (Homo sapiens) (UniProt Q16512); settings: Compound concentration 1000.0 nM
[33] = target: Protein kinase C eta type (Homo sapiens) (UniProt P24723); settings: Compound concentration 1000.0 nM
[34] = test system: Proto-oncogene tyrosine-protein kinase receptor Ret (Homo sapiens), P07949 [V804M]; settings: Compound concentration 1000.0 nM
[35] = target: Rho-associated protein kinase 1 (Homo sapiens) (UniProt Q13464); settings: Compound concentration 1000.0 nM
[36] = target: Ribosomal protein S6 kinase alpha-1 (Homo sapiens) (UniProt Q15418); settings: Compound concentration 1000.0 nM
[37] = target: Serine/threonine-protein kinase 35 (Homo sapiens) (UniProt Q8TDR2); settings: Compound concentration 1000.0 nM
[38] = target: Non-receptor tyrosine-protein kinase TNK1 (Homo sapiens) (UniProt Q13470); settings: Compound concentration 1000.0 nM
[39] = target: BDNF/NT-3 growth factors receptor (Homo sapiens) (UniProt Q16620); settings: Compound concentration 1000.0 nM
[40] = target: NT-3 growth factor receptor (Homo sapiens) (UniProt Q16288); settings: Compound concentration 1000.0 nM
[41] = target: Phosphatidylinositol 3-kinase catalytic subunit type 3 (Homo sapiens) (UniProt Q8NEB9); settings: Compound concentration 1000.0 nM
[42] = target: Serine/threonine-protein kinase WNK3 (Homo sapiens) (UniProt Q9BYP7); settings: Compound concentration 1000.0 nM
[43] = target: Mitogen-activated protein kinase kinase kinase 20 (Homo sapiens) (UniProt Q9NYL2); settings: Compound concentration 1000.0 nM
[44] = target: Beta-1 adrenergic receptor (Homo sapiens) (UniProt P08588); settings: Compound concentration 10.0 uM
[45] = species on record: Rattus norvegicus; settings: Compound concentration 10.0 uM

Sequence of Mitogen-activated protein kinase kinase kinase 2 (Homo sapiens) (Q9Y2U5 whole entry): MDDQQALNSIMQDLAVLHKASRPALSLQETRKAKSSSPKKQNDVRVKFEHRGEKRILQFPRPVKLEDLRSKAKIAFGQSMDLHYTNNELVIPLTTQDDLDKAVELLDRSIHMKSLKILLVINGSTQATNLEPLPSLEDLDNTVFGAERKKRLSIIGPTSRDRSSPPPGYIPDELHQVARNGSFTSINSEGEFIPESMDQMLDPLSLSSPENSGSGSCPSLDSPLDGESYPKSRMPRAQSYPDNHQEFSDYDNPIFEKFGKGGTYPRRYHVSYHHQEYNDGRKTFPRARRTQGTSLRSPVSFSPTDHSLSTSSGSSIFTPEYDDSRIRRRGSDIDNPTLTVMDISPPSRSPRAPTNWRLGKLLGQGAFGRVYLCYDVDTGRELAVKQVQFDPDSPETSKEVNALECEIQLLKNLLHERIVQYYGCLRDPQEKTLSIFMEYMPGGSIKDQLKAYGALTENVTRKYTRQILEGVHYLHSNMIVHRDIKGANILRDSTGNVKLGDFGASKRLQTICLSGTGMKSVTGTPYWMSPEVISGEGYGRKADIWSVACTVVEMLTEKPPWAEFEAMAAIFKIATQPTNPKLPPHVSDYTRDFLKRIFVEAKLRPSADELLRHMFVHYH
Sequence of Atypical kinase COQ8B, mitochondrial (Homo sapiens) (Q96D53 whole entry): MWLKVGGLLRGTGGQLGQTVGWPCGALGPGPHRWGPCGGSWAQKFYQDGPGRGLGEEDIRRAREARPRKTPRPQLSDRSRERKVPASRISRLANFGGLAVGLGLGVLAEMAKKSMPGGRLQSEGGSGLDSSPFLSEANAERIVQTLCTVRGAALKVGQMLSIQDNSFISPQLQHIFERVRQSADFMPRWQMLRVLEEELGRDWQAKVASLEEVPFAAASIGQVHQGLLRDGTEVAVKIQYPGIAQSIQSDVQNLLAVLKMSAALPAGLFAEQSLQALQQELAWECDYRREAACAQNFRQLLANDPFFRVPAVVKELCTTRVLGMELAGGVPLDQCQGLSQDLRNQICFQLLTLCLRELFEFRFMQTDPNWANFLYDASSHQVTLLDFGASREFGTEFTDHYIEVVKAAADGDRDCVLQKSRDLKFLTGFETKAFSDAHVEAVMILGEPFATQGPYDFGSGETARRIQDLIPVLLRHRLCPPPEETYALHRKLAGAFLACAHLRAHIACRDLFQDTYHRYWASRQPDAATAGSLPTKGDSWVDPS
Sequence of Muscle, skeletal receptor tyrosine-protein kinase (Homo sapiens) (O15146 whole entry): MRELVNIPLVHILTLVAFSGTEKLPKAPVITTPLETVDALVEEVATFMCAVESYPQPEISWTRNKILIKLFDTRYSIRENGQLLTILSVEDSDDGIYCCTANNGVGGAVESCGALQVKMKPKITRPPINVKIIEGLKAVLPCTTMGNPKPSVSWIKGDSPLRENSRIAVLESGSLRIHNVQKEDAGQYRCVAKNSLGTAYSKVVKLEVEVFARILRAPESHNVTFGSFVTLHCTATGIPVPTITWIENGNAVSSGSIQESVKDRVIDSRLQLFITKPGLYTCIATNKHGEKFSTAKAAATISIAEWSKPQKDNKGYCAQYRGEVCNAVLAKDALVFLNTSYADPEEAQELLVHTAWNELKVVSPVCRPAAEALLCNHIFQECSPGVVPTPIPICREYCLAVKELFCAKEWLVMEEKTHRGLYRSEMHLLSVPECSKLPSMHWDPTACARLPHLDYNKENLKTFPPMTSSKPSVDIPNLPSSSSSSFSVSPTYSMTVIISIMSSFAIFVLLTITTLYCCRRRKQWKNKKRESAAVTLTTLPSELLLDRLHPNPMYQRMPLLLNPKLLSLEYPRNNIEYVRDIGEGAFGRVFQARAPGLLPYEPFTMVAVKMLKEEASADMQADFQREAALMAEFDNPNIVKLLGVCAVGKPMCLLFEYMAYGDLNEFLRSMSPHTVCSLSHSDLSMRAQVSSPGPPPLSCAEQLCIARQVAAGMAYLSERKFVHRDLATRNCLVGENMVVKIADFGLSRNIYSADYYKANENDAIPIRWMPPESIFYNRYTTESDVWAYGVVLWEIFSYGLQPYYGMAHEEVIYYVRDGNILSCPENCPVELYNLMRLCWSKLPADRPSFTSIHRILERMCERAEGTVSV
Sequence of Ephrin type-B receptor 2 (Homo sapiens) (P29323 whole entry): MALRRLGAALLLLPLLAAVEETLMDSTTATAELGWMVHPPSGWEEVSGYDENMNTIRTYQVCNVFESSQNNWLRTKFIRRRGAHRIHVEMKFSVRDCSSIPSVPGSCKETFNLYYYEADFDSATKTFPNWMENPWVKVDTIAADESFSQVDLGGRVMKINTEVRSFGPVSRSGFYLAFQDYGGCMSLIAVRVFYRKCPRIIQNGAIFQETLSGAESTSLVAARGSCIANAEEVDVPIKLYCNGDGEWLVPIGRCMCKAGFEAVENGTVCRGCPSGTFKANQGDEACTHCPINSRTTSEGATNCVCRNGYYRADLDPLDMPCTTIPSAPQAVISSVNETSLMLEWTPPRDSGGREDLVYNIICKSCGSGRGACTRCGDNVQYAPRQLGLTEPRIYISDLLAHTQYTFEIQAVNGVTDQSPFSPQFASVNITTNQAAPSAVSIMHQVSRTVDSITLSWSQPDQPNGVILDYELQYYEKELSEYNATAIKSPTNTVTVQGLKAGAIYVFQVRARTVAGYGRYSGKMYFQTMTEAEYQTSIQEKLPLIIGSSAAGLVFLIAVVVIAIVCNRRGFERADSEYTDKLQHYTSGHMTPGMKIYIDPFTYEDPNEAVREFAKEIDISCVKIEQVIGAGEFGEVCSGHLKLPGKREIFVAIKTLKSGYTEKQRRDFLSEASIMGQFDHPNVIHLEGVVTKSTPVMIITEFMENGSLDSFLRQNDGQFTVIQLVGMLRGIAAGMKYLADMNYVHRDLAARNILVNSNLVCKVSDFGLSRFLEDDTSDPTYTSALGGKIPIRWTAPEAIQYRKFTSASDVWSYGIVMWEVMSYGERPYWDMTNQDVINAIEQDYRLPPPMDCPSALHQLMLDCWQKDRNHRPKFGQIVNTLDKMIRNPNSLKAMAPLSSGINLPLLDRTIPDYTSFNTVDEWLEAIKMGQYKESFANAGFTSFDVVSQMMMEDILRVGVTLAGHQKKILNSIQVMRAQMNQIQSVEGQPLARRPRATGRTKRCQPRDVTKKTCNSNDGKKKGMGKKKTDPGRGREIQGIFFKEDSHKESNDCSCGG
Sequence of Serine/threonine-protein kinase MRCK alpha (Homo sapiens) (Q5VT25 whole entry): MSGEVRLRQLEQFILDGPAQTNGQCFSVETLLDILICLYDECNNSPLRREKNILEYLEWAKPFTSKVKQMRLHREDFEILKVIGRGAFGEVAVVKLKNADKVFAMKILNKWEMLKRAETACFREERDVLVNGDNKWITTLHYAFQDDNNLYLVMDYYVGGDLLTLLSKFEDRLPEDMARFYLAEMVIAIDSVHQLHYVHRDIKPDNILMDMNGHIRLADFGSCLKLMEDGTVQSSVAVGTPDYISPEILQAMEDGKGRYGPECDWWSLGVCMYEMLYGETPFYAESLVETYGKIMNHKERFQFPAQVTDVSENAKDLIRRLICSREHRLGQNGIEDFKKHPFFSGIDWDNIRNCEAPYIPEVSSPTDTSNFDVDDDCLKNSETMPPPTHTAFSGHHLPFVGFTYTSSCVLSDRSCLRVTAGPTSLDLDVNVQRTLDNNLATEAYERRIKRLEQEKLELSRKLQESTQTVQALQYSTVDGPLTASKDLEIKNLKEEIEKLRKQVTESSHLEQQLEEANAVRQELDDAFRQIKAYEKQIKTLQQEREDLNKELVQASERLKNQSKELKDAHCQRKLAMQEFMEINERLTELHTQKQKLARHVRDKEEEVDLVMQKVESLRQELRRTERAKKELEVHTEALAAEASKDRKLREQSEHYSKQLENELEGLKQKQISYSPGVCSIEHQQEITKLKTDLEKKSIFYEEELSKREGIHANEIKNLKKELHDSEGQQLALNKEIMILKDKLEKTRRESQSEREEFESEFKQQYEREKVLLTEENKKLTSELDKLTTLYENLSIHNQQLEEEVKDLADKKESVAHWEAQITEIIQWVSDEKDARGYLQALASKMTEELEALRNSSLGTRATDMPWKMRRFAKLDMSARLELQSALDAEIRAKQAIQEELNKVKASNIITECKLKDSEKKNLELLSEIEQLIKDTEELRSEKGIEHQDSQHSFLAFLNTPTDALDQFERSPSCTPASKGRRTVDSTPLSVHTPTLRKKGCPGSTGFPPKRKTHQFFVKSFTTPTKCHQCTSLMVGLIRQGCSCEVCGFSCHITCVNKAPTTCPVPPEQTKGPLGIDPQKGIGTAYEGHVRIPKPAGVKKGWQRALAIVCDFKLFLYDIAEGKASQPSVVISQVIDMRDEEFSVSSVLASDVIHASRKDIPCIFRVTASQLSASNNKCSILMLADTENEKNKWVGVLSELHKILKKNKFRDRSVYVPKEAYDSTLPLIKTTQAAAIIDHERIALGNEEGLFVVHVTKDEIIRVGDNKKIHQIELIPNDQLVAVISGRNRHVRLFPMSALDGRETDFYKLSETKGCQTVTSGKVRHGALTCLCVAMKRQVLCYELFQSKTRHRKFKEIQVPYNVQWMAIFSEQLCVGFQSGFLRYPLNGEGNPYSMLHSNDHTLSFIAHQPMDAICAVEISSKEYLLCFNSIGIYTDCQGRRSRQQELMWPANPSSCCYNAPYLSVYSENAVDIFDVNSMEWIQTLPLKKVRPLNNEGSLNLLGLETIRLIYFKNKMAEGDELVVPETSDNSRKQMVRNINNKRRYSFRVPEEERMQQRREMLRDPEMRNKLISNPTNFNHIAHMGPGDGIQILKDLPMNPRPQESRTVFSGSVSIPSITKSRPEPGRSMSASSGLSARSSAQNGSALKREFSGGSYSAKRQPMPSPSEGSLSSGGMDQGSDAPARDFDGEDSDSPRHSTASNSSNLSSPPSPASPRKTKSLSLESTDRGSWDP

## CN([C@@H]1CCc2c(CC(=O)O)c3cc(S(C)(=O)=O)ccc3n2C1)S(=O)(=O)c1ccc(F)cc1
[1]
  residual activity: 99%
[2]
  residual activity: 100%
[3]
  residual activity: 100%
[4]
  residual activity: 96%
[5]
  residual activity: 100%
[6]
  residual activity: 100%
[7]
  residual activity: 100%
[8]
  residual activity: 100%
[9]
  residual activity: 94%
[10]
  residual activity: 90%
[11]
  residual activity: 100%
[12]
  residual activity: 100%
[13]
  residual activity: 87%
[14]
  residual activity: 100%
[15]
  residual activity: 100%
[16]
  residual activity: 100%
[17]
  residual activity: 84%
[18]
  residual activity: 89%
[19]
  residual activity: 89%
[20]
  residual activity: 100%
[21]
  residual activity: 89%
[22]
  residual activity: 100%
[23]
  residual activity: 98%
[24]
  residual activity: 100%
[25]
  residual activity: 94%
[26]
  residual activity: 100%
[27]
  residual activity: 100%
[28]
  residual activity: 100%
[29]
  residual activity: 100%
[30]
  residual activity: 100%
[31]
  residual activity: 98%
[32]
  residual activity: 90%
[33]
  residual activity: 100%
[34]
  residual activity: 100%
[35]
  residual activity: 6%
[36]
  residual activity: 91%
[37]
  residual activity: 100%
[38]
  residual activity: 91%
[39]
  residual activity: 100%
[40]
  residual activity: 100%
[41]
  residual activity: 100%
[42]
  residual activity: 83%
[43]
  residual activity: 80%
[44]
  inhibition: -6.18%
[45]
  inhibition: 41.4%

## CN([C@@H]1CCc2c(CC(=O)O)c3ccccc3n2C1)S(=O)(=O)c1ccc(F)cc1 [MK-7246]
[1]
  residual activity: 96%
[2]
  residual activity: 100%
[3]
  residual activity: 100%
[4]
  residual activity: 100%
[5]
  residual activity: 100%
[6]
  residual activity: 100%
[7]
  residual activity: 100%
[8]
  residual activity: 100%
[9]
  residual activity: 95%
[10]
  residual activity: 100%
[11]
  residual activity: 100%
[12]
  residual activity: 100%
[13]
  residual activity: 100%
[14]
  residual activity: 94%
[15]
  residual activity: 100%
[16]
  residual activity: 95%
[17]
  residual activity: 86%
[18]
  residual activity: 100%
[19]
  residual activity: 96%
[20]
  residual activity: 100%
[21]
  residual activity: 100%
[22]
  residual activity: 100%
[23]
  residual activity: 100%
[24]
  residual activity: 100%
[25]
  residual activity: 93%
[26]
  residual activity: 97%
[27]
  residual activity: 100%
[28]
  residual activity: 100%
[29]
  residual activity: 100%
[30]
  residual activity: 100%
[31]
  residual activity: 100%
[32]
  residual activity: 83%
[33]
  residual activity: 100%
[34]
  residual activity: 98%
[35]
  residual activity: 34%
[36]
  residual activity: 100%
[37]
  residual activity: 100%
[38]
  residual activity: 99%
[39]
  residual activity: 100%
[40]
  residual activity: 100%
[41]
  residual activity: 97%
[42]
  residual activity: 86%
[43]
  residual activity: 99%
[44]
  inhibition: -2.68%
[45]
  inhibition: 54%
